Results reported in ChEMBL document CHEMBL5543112, “Discovery of CBPD-268 as an Exceptionally Potent and Orally Efficacious CBP/p300 PROTAC Degrader Capable of Achieving Tumor Regression” (J Med Chem, 2024).
Blank lines part the entries; values can stand above or below the compound they belong to.

Experiments:
[1] = biological target: Protein cereblon/Histone acetyltransferase p300 (Homo sapiens, UniProt Q09472+Q96SW2); experiment: PROTAC activity at p300/CRBN in human U2OS cells assessed as induction of p300 degradation incubated for 24 hrs by Nan-glo HiBiT lytic assay; type: cell-based
[2] = biological target: Protein cereblon/CREB-binding protein (Homo sapiens, UniProt Q92793+Q96SW2); experiment: PROTAC activity at CBP/CRBN in human U2OS cells assessed as induction of CBP degradation incubated for 24 hrs by Nan-glo HiBiT lytic assay; type: cell-based
VCaP = experiment: Antiproliferative activity against human VCaP cells assessed as cell growth inhibition incubated for 4 days by celtiter-glo luminescent assay; conditions: 96 h
[3] = Drug concentration in rat plasma at 3 mg/kg, po measured at 15 mins by LC-MS/MS analysis; type: ADME, organism-based
[4] = Drug concentration in rat plasma at 3 mg/kg, po measured at 4 hrs by LC-MS/MS analysis; type: ADME, organism-based
[5] = Drug concentration in rat plasma at 3 mg/kg, po measured at 5 mins by LC-MS/MS analysis; type: ADME, organism-based
[6] = AUC (0 to t) in Sprague-Dawley rat at 1 mg/kg, iv measured upto 24 hrs by LC-MS/MS analysis; type: ADME, organism-based; conditions: in vivo
[7] = Drug concentration in rat plasma at 3 mg/kg, po measured at 1 hr by LC-MS/MS analysis; type: ADME, organism-based
[8] = Drug concentration in rat plasma at 3 mg/kg, po measured at 30 mins by LC-MS/MS analysis; type: ADME, organism-based
[9] = Half life in Sprague-Dawley rat at 1 mg/kg, iv measured upto 24 hrs by LC-MS/MS analysis; type: ADME, organism-based; conditions: in vivo
[10] = Volume of distribution at steady state in Sprague-Dawley rat at 1 mg/kg, iv measured upto 24 hrs by LC-MS/MS analysis; type: ADME, organism-based; conditions: in vivo
[11] = Metabolic stability in rat liver microsome assessed as half life measured upto 60 mins in presence of NADPH by LC-MS/MS analysis; type: ADME; conditions: liver microsomes
[12] = Metabolic stability in human liver microsome assessed as half life measured upto 60 mins in presence of NADPH by LC-MS/MS analysis; type: ADME; conditions: liver microsomes
[13] = Metabolic stability in mouse liver microsome assessed as half life measured upto 60 mins in presence of NADPH by LC-MS/MS analysis; type: ADME; conditions: liver microsomes
[14] = Drug concentration in rat plasma at 3 mg/kg, po measured at 6 hrs by LC-MS/MS analysis; type: ADME, organism-based
[15] = Drug concentration in rat plasma at 3 mg/kg, po measured at 2 hrs by LC-MS/MS analysis; type: ADME, organism-based
[16] = biological target: Histone acetyltransferase p300 (Homo sapiens, UniProt Q09472); experiment: Binding affinity to p300 (unknown origin) assessed as dissociation constant by ITC analysis
[17] = biological target: Bromodomain-containing protein 4 (Homo sapiens, UniProt O60885); experiment: Binding affinity to BRD4 (unknown origin) assessed as dissociation constant by ITC analysis
CREB-binding protein = CREB-binding protein (Homo sapiens, UniProt Q92793); experiment: Binding affinity to CBP (unknown origin) assessed as dissociation constant by ITC analysis
[18] = Drug concentration in rat plasma at 3 mg/kg, po measured at 24 hrs by LC-MS/MS analysis; type: ADME, organism-based
CWR22R = experiment: Antiproliferative activity against human 22Rv1 cells assessed as cell growth inhibition incubated for 4 days by celtiter-glo luminescent assay; conditions: 22Rv1, 96 h
LNCaP = experiment: Antiproliferative activity against human LNCaP cells assessed as cell growth inhibition incubated for 4 days by celtiter-glo luminescent assay; conditions: 96 h

Protein cereblon/Histone acetyltransferase p300, sequence (Q09472 whole entry): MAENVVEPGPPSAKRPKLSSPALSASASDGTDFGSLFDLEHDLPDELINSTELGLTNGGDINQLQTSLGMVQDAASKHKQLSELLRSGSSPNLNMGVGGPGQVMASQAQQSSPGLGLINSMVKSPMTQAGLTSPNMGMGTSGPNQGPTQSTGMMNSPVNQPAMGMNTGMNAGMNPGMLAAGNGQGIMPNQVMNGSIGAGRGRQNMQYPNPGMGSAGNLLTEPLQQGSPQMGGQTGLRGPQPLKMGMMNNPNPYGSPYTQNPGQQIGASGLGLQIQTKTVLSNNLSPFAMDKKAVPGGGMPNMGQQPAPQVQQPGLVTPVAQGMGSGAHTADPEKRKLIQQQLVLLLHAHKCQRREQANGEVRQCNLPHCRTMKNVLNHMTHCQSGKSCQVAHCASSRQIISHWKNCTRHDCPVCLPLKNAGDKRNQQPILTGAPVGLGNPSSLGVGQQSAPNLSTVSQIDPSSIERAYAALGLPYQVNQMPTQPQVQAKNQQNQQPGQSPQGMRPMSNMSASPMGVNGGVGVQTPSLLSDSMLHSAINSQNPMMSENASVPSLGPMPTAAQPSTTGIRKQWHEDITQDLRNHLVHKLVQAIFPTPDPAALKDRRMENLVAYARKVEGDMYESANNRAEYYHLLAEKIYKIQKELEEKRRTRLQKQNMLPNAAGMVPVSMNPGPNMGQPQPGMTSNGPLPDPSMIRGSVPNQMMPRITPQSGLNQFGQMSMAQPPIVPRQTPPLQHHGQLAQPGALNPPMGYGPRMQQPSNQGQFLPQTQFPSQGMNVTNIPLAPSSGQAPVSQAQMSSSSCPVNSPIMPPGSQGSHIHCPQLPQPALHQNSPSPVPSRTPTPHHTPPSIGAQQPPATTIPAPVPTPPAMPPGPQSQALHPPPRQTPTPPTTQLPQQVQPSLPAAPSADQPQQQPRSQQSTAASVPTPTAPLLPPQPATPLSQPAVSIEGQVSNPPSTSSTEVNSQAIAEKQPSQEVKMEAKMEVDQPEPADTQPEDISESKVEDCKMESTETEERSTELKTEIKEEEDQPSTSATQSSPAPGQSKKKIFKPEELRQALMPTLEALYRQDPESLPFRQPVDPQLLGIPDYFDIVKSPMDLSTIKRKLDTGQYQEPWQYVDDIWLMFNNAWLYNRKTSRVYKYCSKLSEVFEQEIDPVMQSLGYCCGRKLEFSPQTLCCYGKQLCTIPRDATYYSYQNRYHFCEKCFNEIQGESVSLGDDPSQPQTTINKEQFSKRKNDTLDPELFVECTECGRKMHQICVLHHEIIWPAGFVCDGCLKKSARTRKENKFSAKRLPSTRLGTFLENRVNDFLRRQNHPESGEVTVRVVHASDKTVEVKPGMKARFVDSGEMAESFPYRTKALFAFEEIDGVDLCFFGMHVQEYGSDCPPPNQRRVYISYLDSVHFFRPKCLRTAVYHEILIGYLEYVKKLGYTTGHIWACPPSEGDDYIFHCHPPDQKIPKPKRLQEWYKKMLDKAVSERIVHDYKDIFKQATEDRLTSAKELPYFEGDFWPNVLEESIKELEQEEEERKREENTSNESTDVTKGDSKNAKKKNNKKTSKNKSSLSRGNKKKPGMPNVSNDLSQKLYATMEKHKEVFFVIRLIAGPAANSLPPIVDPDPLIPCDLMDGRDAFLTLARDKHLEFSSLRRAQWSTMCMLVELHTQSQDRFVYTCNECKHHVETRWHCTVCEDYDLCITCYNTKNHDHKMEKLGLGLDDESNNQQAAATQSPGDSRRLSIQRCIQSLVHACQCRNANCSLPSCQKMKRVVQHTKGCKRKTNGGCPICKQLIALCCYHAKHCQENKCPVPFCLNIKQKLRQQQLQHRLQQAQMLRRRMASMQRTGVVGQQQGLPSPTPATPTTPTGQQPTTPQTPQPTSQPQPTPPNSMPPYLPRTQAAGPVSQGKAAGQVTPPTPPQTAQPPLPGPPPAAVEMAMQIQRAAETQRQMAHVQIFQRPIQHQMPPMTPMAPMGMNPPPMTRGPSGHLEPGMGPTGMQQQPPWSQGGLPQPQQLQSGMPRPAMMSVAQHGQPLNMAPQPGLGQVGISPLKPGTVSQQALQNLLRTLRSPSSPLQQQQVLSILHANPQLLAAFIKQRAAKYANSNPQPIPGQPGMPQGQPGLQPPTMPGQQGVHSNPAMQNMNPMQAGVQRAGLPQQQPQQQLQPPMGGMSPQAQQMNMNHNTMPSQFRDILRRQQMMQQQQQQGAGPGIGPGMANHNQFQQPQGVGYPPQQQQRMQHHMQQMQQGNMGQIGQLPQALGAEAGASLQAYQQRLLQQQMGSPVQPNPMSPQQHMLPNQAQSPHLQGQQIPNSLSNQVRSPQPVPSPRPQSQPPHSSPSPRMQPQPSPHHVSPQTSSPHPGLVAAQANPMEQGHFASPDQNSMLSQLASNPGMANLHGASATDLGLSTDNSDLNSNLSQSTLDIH
Protein cereblon/Histone acetyltransferase p300, sequence (Q96SW2 whole entry): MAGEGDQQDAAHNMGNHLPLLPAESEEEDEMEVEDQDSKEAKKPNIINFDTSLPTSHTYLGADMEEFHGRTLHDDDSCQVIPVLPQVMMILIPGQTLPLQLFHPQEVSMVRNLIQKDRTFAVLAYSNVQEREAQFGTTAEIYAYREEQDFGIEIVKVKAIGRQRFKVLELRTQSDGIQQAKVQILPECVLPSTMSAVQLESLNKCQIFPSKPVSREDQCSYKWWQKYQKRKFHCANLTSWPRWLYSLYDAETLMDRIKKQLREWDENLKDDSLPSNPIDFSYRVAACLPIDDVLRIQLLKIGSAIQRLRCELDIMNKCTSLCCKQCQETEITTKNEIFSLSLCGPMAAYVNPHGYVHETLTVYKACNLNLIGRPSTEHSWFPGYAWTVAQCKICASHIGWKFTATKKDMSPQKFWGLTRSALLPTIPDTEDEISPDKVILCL
Histone acetyltransferase p300, sequence (Q09472 whole entry): as the sequence (Q09472 whole entry) above

Structure (SMILES): CC(=O)N1CCc2c(c(N3CCCc4cc(C(C)C)c(C(F)F)cc43)nn2C2CCN(C(=O)CN3Cc4cc5c(cc4C3)C(=O)N(C3CCC(=O)NC3=O)C5=O)CC2)C1 (configuration not stated)
DC50 [1]: 40 nM | DC50 [2]: 57 nM

Structure (SMILES): CC(=O)N1CCc2c(c(N3CCCc4cc(-c5cnn(C)c5)c(C(F)F)cc43)nn2C2CCN(C(=O)CCN3Cc4cc5c(cc4C3)C(=O)N(C3CCC(=O)NC3=O)C5=O)CC2)C1 (configuration not stated)
DC50 [1]: > 1000 nM | DC50 [2]: > 1000 nM

Structure (SMILES): CC(=O)N1CCc2c(c(N3CCCc4cc(-c5cnn(C)c5)c(C(F)F)cc43)nn2C2CCN(C(=O)N3Cc4cc5c(cc4C3)C(=O)N(C3CCC(=O)NC3=O)C5=O)CC2)C1 (configuration not stated)
DC50 [1]: > 1000 nM | DC50 [2]: > 1000 nM

Structure (SMILES): CC(=O)N1CCc2c(c(N3CCCc4cc(C5CCCCC5)c(C(F)F)cc43)nn2C2CCN(C(=O)CN3Cc4cc5c(cc4C3)C(=O)N(C3CCC(=O)NC3=O)C5=O)CC2)C1 (configuration not stated)
DC50 [1]: 39 nM | DC50 [2]: 37 nM

Structure (SMILES): CC(=O)N1CCc2c(c(N3CCCc4cc(-c5cnn(C)c5)c(C(F)F)cc43)nn2C2CCN(C(=O)CCCN3Cc4cc5c(cc4C3)C(=O)N(C3CCC(=O)NC3=O)C5=O)CC2)C1 (configuration not stated)
DC50 [1]: 105 nM | DC50 [2]: 368 nM

Structure (SMILES): CO[C@H]1CC[C@H](n2c([C@@H]3CCCC(=O)N3c3ccc(F)c(F)c3)nc3cc(-c4c(C)noc4C)ccc32)CC1 [INOBRODIB]
IC50 (VCaP): 195 nM

Structure (SMILES): CC(=O)N1CCc2c(c(N3CCCc4cc(-c5cnn(C)c5)c(C(F)F)cc43)nn2C2CCN(C(=O)CCCCN3Cc4cc5c(cc4C3)C(=O)N(C3CCC(=O)NC3=O)C5=O)CC2)C1 (configuration not stated)
DC50 [1]: 46 nM | DC50 [2]: 168 nM

Structure (SMILES): CNC(=O)N1CCc2c(c(N3CCCc4cc(-c5cnn(C)c5)c(C(F)F)cc43)nn2C2CCOCC2)C1
Kd [16]: 1.2 nM | Kd [17]: 4.6 nM | Kd (CREB-binding protein): 0.9 nM

Structure (SMILES): CC(=O)N1CCc2c(c(N3CCCc4cc(-c5cnn(C)c5)c(C(F)F)cc43)nn2C2CCN(C(=O)CCCCCN3Cc4cc5c(cc4C3)C(=O)N(C3CCC(=O)NC3=O)C5=O)CC2)C1 (configuration not stated)
DC50 [1]: 108 nM | DC50 [2]: 362 nM

Structure (SMILES): CC(=O)N1CCc2c(c(N3CCCc4cc(-c5cnn(C)c5)c(C(F)F)cc43)nn2C2CCOCC2)C1
IC50 (VCaP): > 1000 nM | Kd [16]: 1.3 nM | IC50 (CWR22R): > 1000 nM | Kd [17]: 200 nM | Kd (CREB-binding protein): 1.1 nM | IC50 (LNCaP): > 1000 nM

Structure (SMILES): CNC(=O)c1ccc(N2C(=S)N(c3ccc(C#N)c(C(F)(F)F)c3)C(=O)C2(C)C)cc1F [ENZALUTAMIDE]
IC50 (VCaP): > 1000 nM | IC50 (CWR22R): > 1000 nM

Other lines, results leading:

DC50 [1]: 23 nM | DC50 [2]: 31 nM
Structure (SMILES): CC(=O)N1CCc2c(c(N3CCCc4cc(-c5ccccc5)c(C(F)F)cc43)nn2C2CCN(C(=O)CN3Cc4cc5c(cc4C3)C(=O)N(C3CCC(=O)NC3=O)C5=O)CC2)C1 (configuration not stated)

DC50 [1]: 17 nM | DC50 [2]: 64 nM
Structure (SMILES): CC(=O)N1CCc2c(c(N3CCCc4cc(Br)c(C(F)F)cc43)nn2C2CCN(C(=O)CN3Cc4cc5c(cc4C3)C(=O)N(C3CCC(=O)NC3=O)C5=O)CC2)C1 (configuration not stated)

DC50 [1]: 18 nM | DC50 [2]: 89 nM
Structure (SMILES): CCc1cc2c(cc1C(F)F)N(c1nn(C3CCN(C(=O)CN4Cc5cc6c(cc5C4)C(=O)N(C4CCC(=O)NC4=O)C6=O)CC3)c3c1CN(C(C)=O)CC3)CCC2 (configuration not stated)

IC50 (VCaP): 125 nM
Structure (SMILES): N#Cc1ccc(O[C@H]2CC[C@H](NC(=O)c3ccc(N4CCC(CN5CCN(c6cc7c(cc6F)C(=O)N(C6CCC(=O)NC6=O)C7=O)CC5)CC4)nn3)CC2)cc1Cl (some centres not stated) [BAVDEGALUTAMIDE]

DC50 [1]: 41 nM | DC50 [2]: 36 nM
Structure (SMILES): CC(=O)N1CCc2c(c(N3CCCc4cc(-c5ccc(F)cc5)c(C(F)F)cc43)nn2C2CCN(C(=O)CN3Cc4cc5c(cc4C3)C(=O)N(C3CCC(=O)NC3=O)C5=O)CC2)C1 (configuration not stated)

concentration at 0.25 h [3]: 0.5 ng/mL | concentration at 4 h [4]: 0.7 ng/mL | concentration at 5 min [5]: 1 ng/mL | AUC(0-t) at 24 h [6]: 88.7 ng·h/mL | concentration at 1 h [7]: 0.3 ng/mL | concentration at 0.5 h [8]: 0.4 ng/mL | t1/2 [9]: 1.1 h | DC50 [1]: 204 nM | Vdss [10]: 1.7 L/kg | DC50 [2]: 519 nM | half-life [11]: > 60 min | half-life [12]: > 60 min | half-life [13]: > 60 min | concentration at 6 h [14]: 0.9 ng/mL | concentration at 2 h [15]: 0.4 ng/mL
Structure (SMILES): CC(=O)N1CCc2c(c(N3CCCc4ccc(C(F)F)cc43)nn2C2CCN(C(=O)CN3Cc4cc5c(cc4C3)C(=O)N(C3CCC(=O)NC3=O)C5=O)CC2)C1 (configuration not stated)

DC50 [1]: > 1000 nM | DC50 [2]: > 1000 nM
Structure (SMILES): CC(=O)N1CCc2c(c(N3CCCc4cc(-c5cnn(C)c5)c(C(F)F)cc43)nn2C2CCN(CC(=O)N3Cc4cc5c(cc4C3)C(=O)N(C3CCC(=O)NC3=O)C5=O)CC2)C1 (configuration not stated)

DC50 [1]: 9.6 nM | DC50 [2]: 55 nM
Structure (SMILES): CC(=O)N1CCc2c(c(N3CCCc4cc(C)c(C(F)F)cc43)nn2C2CCN(C(=O)CN3Cc4cc5c(cc4C3)C(=O)N(C3CCC(=O)NC3=O)C5=O)CC2)C1 (configuration not stated)

concentration at 0.25 h [3]: 1.9 ng/mL | concentration at 5 min [5]: 3.7 ng/mL | AUC(0-t) at 24 h [6]: 166 ng·h/mL | t1/2 [9]: 1.3 h | Vdss [10]: 6.3 L/kg | concentration at 24 h [18]: 4.6 ng/mL | half-life [11]: > 60 min | half-life [12]: 9.8 min | half-life [13]: 19 min
Structure (SMILES): CC(=O)N1CCc2c(c(N3CCCc4cc(-c5cnn(C)c5)c(C(F)F)cc43)nn2C2CCN(C(=O)CN3Cc4cc5c(cc4C3)C(=O)N(C3CCC(=O)NC3=O)C5=O)CC2)C1 (configuration not stated)

DC50 [1]: 29 nM | DC50 [2]: 52 nM
Structure (SMILES): CC(=O)N1CCc2c(c(N3CCCc4cc(C5CC5)c(C(F)F)cc43)nn2C2CCN(C(=O)CN3Cc4cc5c(cc4C3)C(=O)N(C3CCC(=O)NC3=O)C5=O)CC2)C1 (configuration not stated)

DC50 [1]: 33 nM | DC50 [2]: 24 nM
Structure (SMILES): CC(=O)N1CCc2c(c(N3CCCc4cc(-c5cccs5)c(C(F)F)cc43)nn2C2CCN(C(=O)CN3Cc4cc5c(cc4C3)C(=O)N(C3CCC(=O)NC3=O)C5=O)CC2)C1 (configuration not stated)
